Measurements reported in PMC6017707, “Structure Related Inhibition of Enzyme Systems in Cholinesterases and BACE1 In Vitro by Naturally Occurring Naphthopyrone and Its Glycosides Isolated from Cassia obtusifolia” (Molecules : A Journal of Synthetic Chemistry and Natural …, 2017).
“And” between values parts separate entries of the source, which are not always exact repeats. Equal entries are not always repeated. “Also recorded” adds a separate entry of the source. Where two headings read alike, the source gives them in different places.

How the values were obtained:
[1] = target: T1, Electric eel acetylcholinesterase (Electrophorus electricus, UniProt O42275); assay: In vitro AChE inhibition assay (Ellman spectrophotometric method); format: biochemical
T1 construct: purchased Sigma Co. (St. Louis, MO, USA)
T1 sequence (O42275 24-633): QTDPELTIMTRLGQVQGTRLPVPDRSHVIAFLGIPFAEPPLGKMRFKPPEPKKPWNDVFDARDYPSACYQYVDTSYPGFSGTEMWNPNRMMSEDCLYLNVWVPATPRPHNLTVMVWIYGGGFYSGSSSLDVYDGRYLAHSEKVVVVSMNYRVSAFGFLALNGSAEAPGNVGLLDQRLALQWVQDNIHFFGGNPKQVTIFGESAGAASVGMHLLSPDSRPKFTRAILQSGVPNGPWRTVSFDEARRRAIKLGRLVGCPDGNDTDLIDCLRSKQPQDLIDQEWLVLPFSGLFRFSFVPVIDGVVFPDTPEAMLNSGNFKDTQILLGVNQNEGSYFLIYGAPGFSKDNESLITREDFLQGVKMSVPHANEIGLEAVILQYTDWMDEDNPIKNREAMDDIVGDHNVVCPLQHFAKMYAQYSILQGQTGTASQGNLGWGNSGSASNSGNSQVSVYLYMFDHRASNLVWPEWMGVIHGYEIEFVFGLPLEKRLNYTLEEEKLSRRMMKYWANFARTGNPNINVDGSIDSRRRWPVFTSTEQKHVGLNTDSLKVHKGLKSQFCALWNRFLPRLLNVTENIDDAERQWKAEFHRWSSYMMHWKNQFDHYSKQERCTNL
Method: (§1) The inhibitory activities of isolated compounds against ChEs were measured using the spectrophotometric method, as described previously. Briefly, AChI and BCh were used as the substrates to assay the inhibition of AChE and BChE, respectively. Each reaction mixture contained 140 µL of sodium phosphate buffer (pH 8.0); 20 µL of compounds (final conc., 100 µM); and, 20 µL of either AChE or BChE solution, which was mixed and incubated for 15 min at room temperature. […] Reactions were initiated by the addition of 10 µL of DTNB and 10 µL of either AChI or BCh. […] All of the reactions were performed in triplicate and recorded in 96-well microplate format using a microplate spectrophotometer (Molecular Devices, Sunnyvale, CA, USA). Percent inhibition was calculated as (1-S/E) × 100, where E and S were the respective enzyme activities without and with the tested sample, respectively.

human recombinant BACE1 [2] = target: T2, human recombinant BACE1 (Homo sapiens, UniProt P56817); assay: In vitro BACE1 FRET enzyme assay; format: biochemical; conditions: for IC50: log dose inhibition curve; for BACE1 inhibitory activity (in words): at concentrations up to 200 µM
T2 construct: purchased Pan Vera Co. (Madison, WI, USA)
T2 sequence (P56817 46-501): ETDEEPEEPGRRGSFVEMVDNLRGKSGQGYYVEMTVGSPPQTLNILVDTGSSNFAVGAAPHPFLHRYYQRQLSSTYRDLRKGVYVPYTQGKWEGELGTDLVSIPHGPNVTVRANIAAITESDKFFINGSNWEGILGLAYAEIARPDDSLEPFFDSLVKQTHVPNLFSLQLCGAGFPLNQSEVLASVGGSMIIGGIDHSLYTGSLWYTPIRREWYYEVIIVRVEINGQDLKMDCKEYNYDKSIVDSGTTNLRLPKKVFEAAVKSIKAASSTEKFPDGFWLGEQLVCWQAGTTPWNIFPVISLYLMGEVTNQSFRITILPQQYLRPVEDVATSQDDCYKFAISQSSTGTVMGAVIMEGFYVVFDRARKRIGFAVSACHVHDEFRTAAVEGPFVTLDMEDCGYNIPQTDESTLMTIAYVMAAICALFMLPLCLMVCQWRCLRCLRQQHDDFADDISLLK
Method: Assays were performed according to the supplied manual (Pan Vera Co.) with selected modifications, as described previously. […] Fluorescence was measured with a microplate spectrophotometer (Molecular Devices). The percent of inhibition (%) was obtained by the following equation: % Inhibition = [1 − (S60 − S0)/(C60 − C0)] × 100, where C60 was the fluorescence of the control (enzyme, buffer, and substrate) after incubation for 60 min, C0 was the initial fluorescence of the control, S60 was the fluorescence of the tested samples (enzyme, sample solution, and substrate) after incubation for 60 min, and S0 was the initial fluorescence of the tested samples. To account for the quenching effect of samples, the sample solution was added to a separate reaction mixture C, and any reduction in fluorescence by the sample was investigated.

[3] = target: T3, horse serum butyrylcholinesterase (Equus caballus, UniProt P81908); assay: In vitro BChE inhibition assay (Ellman spectrophotometric method); format: biochemical
T3 construct: horse-serum BChE (EC 3.1.1.8); purchased Sigma Co. (St. Louis, MO, USA); host or cells: horse serum
T3 sequence (P81908 whole entry): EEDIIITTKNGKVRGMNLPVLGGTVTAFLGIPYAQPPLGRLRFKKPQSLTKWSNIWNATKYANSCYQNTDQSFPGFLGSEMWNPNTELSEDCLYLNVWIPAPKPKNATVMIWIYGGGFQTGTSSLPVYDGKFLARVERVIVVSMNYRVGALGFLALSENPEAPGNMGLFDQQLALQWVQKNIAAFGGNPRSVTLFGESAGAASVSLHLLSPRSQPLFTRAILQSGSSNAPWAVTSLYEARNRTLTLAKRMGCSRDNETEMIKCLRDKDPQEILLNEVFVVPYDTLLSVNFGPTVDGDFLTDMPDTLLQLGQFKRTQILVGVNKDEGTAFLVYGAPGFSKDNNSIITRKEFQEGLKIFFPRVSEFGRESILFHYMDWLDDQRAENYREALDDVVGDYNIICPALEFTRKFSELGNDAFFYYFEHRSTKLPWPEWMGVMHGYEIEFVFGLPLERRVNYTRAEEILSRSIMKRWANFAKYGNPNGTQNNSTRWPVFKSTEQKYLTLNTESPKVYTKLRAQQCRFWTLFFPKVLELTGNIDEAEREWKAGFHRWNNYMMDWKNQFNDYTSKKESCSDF
Method: as §1

human recombinant BACE1 [4] = target: T2, human recombinant BACE1; conditions: cited from earlier work; for BACE1 inhibitory activity (in words): compounds isolated from n-BuOH fraction in earlier study
[5] = target: T1, Electric eel acetylcholinesterase; assay: Enzyme kinetic analysis with AChE (Dixon and Lineweaver-Burk plots); format: biochemical
Method: Inhibition constants (Ki) were determined by the interpretation of Dixon plots, where the x-axis intercept was taken as Ki.

[6] = design: method as in PMID 10319159; conditions: cited from earlier work
human recombinant BACE1 [7] = target: T2, human recombinant BACE1; assay: Enzyme kinetic analysis with BACE1 (Dixon and Lineweaver-Burk plots); format: biochemical
Method: Assays were performed according to the supplied manual (Pan Vera Co.) with selected modifications, as described previously. Briefly, mixtures of 10 µL of assay buffer (50 mM sodium acetate, pH 4.5), 10 µL of BACE1 (1.0 U/mL), 10 µL of the substrate (750 nM Rh-[…]-Quencher in 50 mM, ammonium bicarbonate), and 10 µL of compounds (final conc., 100 µM) dissolved in 10% DMSO were incubated for 60 min at 25 °C in the dark. The proteolysis of two fluorophores (Rh-[…]-Quencher) by BACE1 was monitored by the formation of fluorescent donor Rh-EVNL (530–545 nm, excitation; 570–590 nm, emission), the abundance of which was determined by measuring increase in fluorescence excited at 545 nm and recorded at 585 nm. Fluorescence was measured with a microplate spectrophotometer (Molecular Devices). The percent of inhibition (%) was obtained by the following equation: % Inhibition = [1 − (S60 − S0)/(C60 − C0)] × 100, where C60 was the fluorescence of the control (enzyme, buffer, and substrate) after incubation for 60 min, C0 was the initial fluorescence of the control, S60 was the fluorescence of the tested samples (enzyme, sample solution, and substrate) after incubation for 60 min, and S0 was the initial fluorescence of the tested samples. […]

[8] = mean ± S.E.M of triplicate experiments, log dose inhibition curve, read-out: AChE IC50
[9] = mean ± S.E.M of triplicate experiments, read-out: BACE1 IC50
[10] = mean ± S.E.M of triplicate experiments, log dose inhibition curve, read-out: BChE IC50

**Q.** What does the source list for COc1cc(O)c2c(O)c3c(=O)cc(C)oc3cc2c1 [Compound 1, rubrofusarin]?
**A.** IC50 [1]: 124 ± 1.39 µM; IC50 (human recombinant BACE1 [2]; BACE1 IC50, mean ± S.E.M of triplicate experiments): 90 ± 2.38 µM; IC50 [3]: > 200 µM

**Q.** For COc1cc(O[C@@H]2O[C@H](CO[C@@H]3O[C@H](CO)[C@@H](O)[C@H](O)[C@H]3O)[C@@H](O)[C@H](O)[C@H]2O)c2c(c1)cc(O)c1c(=O)cc(C)oc12 [Compound 5, isorubrofusarin 10-O-β-D-gentiobioside], which IC50 [1, 8] is on record?
**A.** 83.5 ± 1.56 µM

**Q.** And the “BACE1 inhibitory activity (in words)” value (human recombinant BACE1 [2])?
**A.** no significant inhibitory activity

**Q.** And the IC50 (human recombinant BACE1 [2]; [9])?
**A.** > 200 µM

**Q.** What about the IC50 [3, 10] of the same compound?
**A.** > 200 µM

**Q.** With COc1cc(OC)c2c(=O)c(OC)c(-c3ccc(OC)c(OC)c3)oc2c1 [PMF, 3,5,7,3′,4′-pentamethoxyflavone, reference compound] as the compound, how does the IC50 (human recombinant BACE1 [4]; read-out: BACE1 IC50, literature value for PMF) read?
**A.** 59.8 µM

**Q.** What about the BACE1 inhibitor type (human recombinant BACE1 [4]; reported for PMF) of the same compound?
**A.** noncompetitive inhibitor

**Q.** Which Ki ([5]; Dixon plot, read-out: Ki Value (AChE inhibition constant)) does the source give for COc1cc(O[C@@H]2O[C@H](CO[C@@H]3O[C@H](CO)[C@@H](O)[C@H](O)[C@H]3O)[C@@H](O)[C@H](O)[C@H]2O)c2c(O)c3c(=O)cc(C)oc3cc2c1 [Compound 3, rubrofusarin 6-O-β-D-gentiobioside] here?
**A.** 12.8 µM

**Q.** What about the “Inhibition Type (AChE)” value ([5]; Lineweaver-Burk plot) of the same compound?
**A.** mixed type inhibition; also recorded: Mixed type ^c

**Q.** What about the “Radical scavenging activity relative to 4” value [6] of the same compound?
**A.** twice

**Q.** And the “AChE inhibition relative to 5, 6 and 4” value [1]?
**A.** five times

**Q.** And the “AChE inhibition relative to 1” value ([1]; fold more effective than 1 (no sugar moiety))?
**A.** eight times

**Q.** And the “AChE inhibition relative to 2” value ([1]; fold more effective than 2 (one sugar moiety))?
**A.** nine times

**Q.** What about the IC50 [1, 8] of the same compound?
**A.** 15.9 ± 0.32 µM

**Q.** What about the IC50 (human recombinant BACE1 [2]; [9]) of the same compound?
**A.** 85.7 ± 3.98 µM

**Q.** What about the IC50 [3, 10] of the same compound?
**A.** 141.2 ± 1.23 µM

**Q.** With Cc1cc(=O)c2c(O)c3c(OC4OC(CO)C(O)C(O)C4O)cc(O)cc3cc2o1 [Compound 4, nor-rubrofusarin 6-O-β-D-glucoside] as the compound, how does the IC50 [1, 8] read?
**A.** 86 ± 2.01 µM

**Q.** What about the IC50 (human recombinant BACE1 [2]; [9]) of the same compound?
**A.** 86 µM and 14.4 µM

**Q.** What about the Ki (human recombinant BACE1 [7]; Dixon plot, read-out: Ki Value (BACE1 inhibition constant)) of the same compound?
**A.** 10 µM

**Q.** What about the “Inhibition Type (BACE1)” value (human recombinant BACE1 [7]; Lineweaver-Burk plot) of the same compound?
**A.** mixed type of inhibition; also recorded: Mixed type ^e

**Q.** And the “BACE1 inhibitory activity (in words)” value (human recombinant BACE1 [4])?
**A.** most potent BACE1 inhibitory activity

**Q.** And the IC50 [3, 10]?
**A.** > 200 µM

**Q.** Which IC50 [1] does the source give for COc1ccc2cc3[n+](cc2c1OC)CCc1cc2c(cc1-3)OCO2 [Berberine, berberine, reference compound] here?
**A.** 0.68 ± 0.01 µM

**Q.** Which results are given for COc1cc(OC2OC(CO)C(O)C(O)C2O)c2c(O)c3c(=O)cc(C)oc3cc2c1 [Compound 2, rubrofusarin 6-O-β-D-glucopyranoside]?
**A.** IC50 [1, 8]: 148 ± 2.09 µM; IC50 (human recombinant BACE1 [2]; [9]): 148 µM and 191 µM; IC50 [3, 10]: > 200 µM

**Q.** Which results are given for COc1cc(O[C@@H]2O[C@H](CO[C@@H]3O[C@H](CO)[C@@H](O)[C@H](O[C@@H]4O[C@H](CO)[C@@H](O)[C@H](O)[C@H]4O)[C@H]3O)[C@@H](O)[C@H](O)[C@H]2O)c2c(O)c3c(=O)cc(C)oc3cc2c1 [Compound 6, rubrofusarin 6-O-β-D-triglucoside]?
**A.** IC50 [1, 8]: 82.3 ± 1.63 µM; BACE1 inhibitory activity (in words) (human recombinant BACE1 [2]): no significant inhibitory activity; IC50 (human recombinant BACE1 [2]; [9]): > 200 µM; IC50 [3, 10]: > 200 µM

**Q.** For toralactone gentiobioside, which “BACE1 inhibitory activity (in words)” value (human recombinant BACE1 [4]) is on record?
**A.** moderate activity
